Data published in patent publication US8323659B2, “Method for diagnosing and/or treating tumor” (Keio University, priority 2008, dated 2012).

How the values were obtained:
[1] = tested on: human pancreatic tumor cell line Panc-1; experiment: Toxicity of peptide-induced CD8+ cells (HLA-A02 positive PBMC) against Panc-1; type: cell-based; settings: two HLA-A02 positive healthy individuals; FIG. 5E
[2] = tested on: CD8+ cells from PBMC of healthy individuals positive for HLA-A24; experiment: Gamma interferon production by peptide-induced human CD8+ cells; type: cell-based; settings: IL-2 and APC; for gamma interferon production capability: FIG. 5D
Description: (§1) First, blood was collected from two healthy individuals positive for HLA-A24, to which 1/10 volume of 4% sodium citrate was added, and was overlaid on Ficoll-Paque (Amersham Inc.) and centrifuged (1500 rpm, 20 min, room temperature). The fraction of monocytes (PBMC) separated in the interface was cultured for 6 days under the stimulation with 10 μg/mL of each peptide, from which CD8+ cells were isolated by the MACS method using antibody-coupled magnetic beads (Miltenyi Inc). In order to estimate cytotoxic activity of the isolated CD8+ cells, they were cocultured with human colon cancer cell line COLO320 (HLA-A24^+ SAGE^+ HERV-H ^+ Env^+) as the target cell at a mixing ratio of [CD8+ cell:COLO320 tumor cell=50:1] for 6 hours. The killed tumor cells were detected using Immunocyto Cytotoxity Detection Kit (MBL inc.), and tumor-specific toxicity rates were calculated according to the protocol attached to the kit. Results are plotted in the graph of FIG. 5A.
In order to evaluate the gamma interferon production capability, 1×10^6 of CD8+ cells were stimulated by 1 or 10 μg/mL of each peptide for 24 hours in the presence of IL-2 (100 U/mL, Peprotech Inc.) and APC (5×10^6 cells) which was obtained by collecting the PBMCs freshly from a healthy individual and then inactivating them with mitomycin C. Amounts of gamma interferon contained in the culture supernatants were measured by Cytometric Bead Array kit for human (BD Biosciences Inc.). Results are plotted in the graph of FIG. 5B.
The gamma interferon production capability was evaluated by stimulating CD8+ cells with 0.1, 1 or 10 μg/mL of each peptide in the presence of IL-2 and APC. The results are plotted in the graph of FIG. 5D.

[3] = tested on: human colon cancer cell line COLO320; experiment: Toxicity of peptide-induced CD8+ cells (HLA-A24 positive PBMC) against COLO320; type: cell-based
Description: as §1
The toxicity against tumor cells was evaluated by setting the ratio of CD8+ cells:COLO320 tumor cells to 6.25:1, 12.5:1, 25:1 or 50:1. The results are plotted in the graph of FIG. 5C.

[4] = tested on: PKH67-labeled CD8+ cells in SCID mice; experiment: In vivo proliferation of peptide-induced CD8+ cells in immunodeficiency mice; design: species or system mouse; settings: FIG. 8; for content of CD8+ cells in vivo: SCID mice, peptide 100 μg per animal via tail vein, 5 days, spleen and peripheral blood, versus no peptide administered
Description: In the same method as described in Example 4, CD8+ cells were obtained by culturing PBMCs with the stimulation of HERV-H#1 (final concentration 10 μg/mL). The CD8+ cells for a control group were obtained by culturing under the stimulation by NY-ESO-1 peptide (SEQ ID NO: 23) in place of HERV-H#1 at the same concentration. The CD8+ cells thus obtained were fluorescence-labeled by mixing with a fluorescent dye PKH67 (Sigma Corp.) and incubating for 10 min.
The PKH67-labeled CD8+ cells (2×10^6 cells), PBMCs (2×10^7 cells) collected from the same healthy individual, and a peptide (HERV-H Env or NY-ESO-1 (control groups) at 100 μg per animal) were injected via the tail vein of immunodeficiency mice (the SCID mice, CLEA Japan Inc.). Spleen cells and peripheral blood cells were collected from the mice on 5 days after the administration, and the content of PKH67-labeled CD8+ cells was measured by flow cytometry (BD Inc.). Mice treated similarly except that no peptide was administered were used for a control experiment.

[5] = tested on: CD8+ cells of genetically modified mice expressing HLA-A24 (A24-Tg); experiment: Gamma interferon production by CD8+ cells of peptide-immunized HLA-A24 transgenic mice; type: cell-based, mouse; settings: for gamma interferon producing activity at lower concentrations: peptide below 2 μg/mL, normalized to 10 μg/mL as 100%
Description: First, dendritic cell precursors were isolated from bone marrow cells of A24-Tg mice using LineagePanel Streptavidin Plus Magnetic Particles-DM (BD Biosciences Inc.) and cultured for 6 days in the presence of GM-CSF (10 ng/mL, Peprotech Inc.) to induce their differentiation. The dendritic cells thus obtained were cultured for 6 hours in the presence of each of the peptides having the sequences shown below (10 μg/mL, synthesized by Invitrogen Inc.), and then injected subcutaneously to genetically modified mice expressing HLA-A24 at 5×10^6 cells per mouse for immunization. In addition, SAGE which has been identified as a testicular tumor antigen and for which a HLA-A24-restricted peptide has been established, was used for a positive control experiment (Cancer Research 60:3848-3855, 2000), and dendritic cells not stimulated by a peptide were used as the negative control.
Spleen cells were collected from the mice one week after the immunization with each of the peptides, and were cultured under the stimulation by 10 μg/mL of the same peptide as used for immunization for 6 days, from which CD8+ cells were isolated by the MACS method using antibody-coupled magnetic beads from Miltenyi Inc . In order to produce cytokine at a higher level, the CD8+ cells (1×10^6) were further stimulated for 24 hours by 0.08 to 10 μg/mL of the same peptide in the presence of APC (1×10^7 cells) that was obtained by collecting the spleen cells freshly from a HLA-A24 expressing-genetically modified mouse and then inactivating the cells with mitomycin C. Amounts of gamma interferon contained in the culture supernatants were measured by Cytometric Bead Array kit for mouse (BD Biosciences Inc.).

[6] = tested on: Clone F3 (Panc-1 cells in which the snail gene was forcibly expressed); experiment: Cell growth of Clone F3 after siRNA transfection; type: cell-based, human; settings: F3 cells cultured 2 to 3 days after siRNA transfection; in contrast to untreated cells and control siRNA; FIG. 3A
Description: First, snail cDNA (CDS 71-865, 795 bp) was amplified by PCR using the Panc-1 cells that had been stimulated with TGF-beta known as an EMT-inducing agent, and was inserted into the EcoR I-Xho I restriction sites of pcDNA3.1 (+) plasmid vector (Invitrogen Inc.) having a G418 resistance gene. The vector was introduced into the tumor cell lines by electroporation. The cells were cultured for 2 weeks and then drug-resistant cells were selected with G418 (2 mg/mL) and cloned.
In this example, the expression of HERV-H env gene was suppressed in Clone F3 and cell invasion capability and growth rate were measured.
(§2) First, 5×10^4 of F3 cells, as well as F3 cells (#1 to #4, Invitrogen Inc.) that had been cultured for 2 to 3 days after transfected with each of the 4 kinds of HERV-H env gene specific-siRNAs (shown below) by PEI complex method (Polyplus Inc.), were counted. The numbers of cells as plotted in the graph of FIG. 3A were taken as a standard of the growth rates.
(§3) For control experiments, F3 cells (Control) transfected with a control oligonucleotide from Invitrogen, F3 cells (siRNA-snail) transfected with snail gene specific-siRNA (SiRNA-snail #1) (shown below) and a Panc-1 cell line (Parent) were used.

[7] = tested on: Clone F3 (Panc-1 cells in which the snail gene was forcibly expressed); experiment: Cell invasion capability of Clone F3 (matrigel Invasion Chamber); type: cell-based, human; settings: F3 cells transfected with siRNA; matrigel-coated membrane, 4 hours; FIG. 3B
From the text: as §2
Then, the recovered cells were placed on the upper surface of the Invasion Chamber (pore size 8 μm, BD Bioscience Inc.) whose membrane was coated with matrigel, and cultured for 4 hours (37° C., 5% CO2). After cells remaining on the upper surface of the membrane were removed completely, the cells invaded into the lower surface of the membrane were fixed and stained with Crystal Violet solution and counted under a microscope to evaluate the cell invasion capability.
as §3

[8] = lower peptide concentration (0.1 μg/mL)
[9] = peptide concentrations equal to or higher than 1 μg/mL

SYLHHTINL (listed as Homo sapiens) [HERV-H#1]
toxicity against tumor cells (killed Panc-1) [1]: highest toxicity
gamma interferon production capability [2, 8]: still sufficient to induce gamma interferon production
gamma interferon production ([2]; peptide 10 μg/mL, 24 hours, FIG. 5B): significantly higher production than the other peptides
gamma interferon production capability [2, 9]: second best after NY-ESO-1
toxicity against tumor cells (COLO320) ([3]; E:T ratio equal to or more than 25:1, FIG. 5C): highest toxicity
toxicity against tumor cells (killed COLO320) ([3]; two HLA-A24 positive healthy individuals, CD8+ cell:COLO320 = 50:1, 6 hours, FIG. 5A): highest
content of CD8+ cells in vivo [4]: higher content of CD8+ cells
self-proliferation of the induced CD8+ cells ([4]; no peptide administered to the mice, versus CD8+ cells induced by NY-ESO-1 peptide): less active
proliferation activity of the induced CD8+ cells ([4]; peptides administered to the mice, versus CD8+ cells induced by NY-ESO-1 peptide): higher than that of the CD8+ cells induced by NY-ESO-1 peptide
TCR-binding affinity ([5]; inferred from the concentration dependence of gamma interferon production, P<0.001, t-test): significantly higher than the other peptides
gamma interferon producing activity at lower concentrations ([5]; FIG. 4B): maintained

FYSLLLYSL (listed as Homo sapiens) [HERV-H#2]
amounts of gamma interferon produced (comparison among the HERV-H Env peptides) ([5]; peptide 0.08 to 10 μg/mL, FIG. 4B): highest activity
gamma interferon producing activity at lower concentrations ([5]; FIG. 4B): significantly reduced

siRNA-snail: snail gene specific-siRNA; sense GCGAGCUGCAGGACUCUAAdTdT (SEQ ID NO: 18), antisense SEQ ID NO: 19 (sense GCGAGCUGCAGGACUCUAATT; antisense UUAGAGUCCUGCAGCUCGCTT; dTdT overhangs, further chemistry not given here)
cell growth (numbers of cells) [6]: strongly suppressed
cell invasion capability [7]: significantly reduced

NYAEPPWPL (listed as Homo sapiens) [HERV-H#3]
gamma interferon producing activity at lower concentrations ([5]; FIG. 4B): significantly reduced

LLMWITQCF (listed as Homo sapiens) [NY-ESO-1, HLA-A24-restricted tumor antigen peptide clinically used in peptide vaccine treatments, reference compound]
gamma interferon production capability [2, 8]: significantly reduced
gamma interferon production capability [2, 9]: best production
content of CD8+ cells in vivo [4]: higher content of CD8+ cells
